ChEMBL document CHEMBL1155486, “From 6-aminoquinolone antibacterials to 6-amino-7-thiopyranopyridinylquinolone ethyl esters as inhibitors of Staphylococcus aureus multidrug efflux pumps” (2010)
Values after ≈ are worked out from the molar mass of the structure shown.

Assays:
Staphylococcus aureus [1] = test: Antibacterial activity against Staphylococcus aureus K1640 bearing S84L mutant GyrA and S80Y mutant GrlA by microdilution technique; type: functional
Staphylococcus aureus [2] = test: Antibacterial activity against Staphylococcus aureus SA-1199B norA++ and A116E GrlA mutation by microdilution technique; type: functional
Staphylococcus aureus [3] = test: Antibacterial activity against Staphylococcus aureus K1134 bearing wild-type GyrA and S80Y mutant GrlA by microdilution technique; type: functional
Staphylococcus aureus [4] = test: Antibacterial activity against Staphylococcus aureus K1305 bearing wild-type GyrA and E84K mutant GrlA by microdilution technique; type: functional
Staphylococcus aureus [5] = test: Antibacterial activity against Staphylococcus aureus ATCC 25923 by microdilution technique; type: functional
Staphylococcus aureus [6] = test: Antibacterial activity against Staphylococcus aureus K1628 bearing S84L mutant GyrA and S80F mutant GrlA by microdilution technique; type: functional
Staphylococcus aureus [7] = test: Antibacterial activity against wild-type norA expressing Staphylococcus aureus SA-1199 by microdilution technique; type: functional
Escherichia coli = test: Antibacterial activity against Escherichia coli ATCC 25922 by microdilution technique; type: functional
Staphylococcus aureus [8] = test: Antibacterial activity against methicillin and ciprofloxacin-resistant Staphylococcus aureus 25A by microdilution technique; type: functional
Staphylococcus aureus [9] = test: Antibacterial activity against Staphylococcus aureus SA-K1902 bearing norA- deficient mutation by microdilution technique; type: functional
Staphylococcus aureus [10] = test: Antibacterial activity against Staphylococcus aureus K1035 bearing wild-type GyrA and S80F mutant GrlA by microdilution technique; type: functional
Staphylococcus aureus [11] = test: Antibacterial activity against Staphylococcus aureus SA-K1904 bearing norA++ efficient mutation by microdilution technique; type: functional
Staphylococcus aureus [12] = test: Antibacterial activity against Staphylococcus aureus SA-1199B by EtBr efflux assay; type: functional
[13] = molecular target: T1, Quinolone resistance protein NorA (Staphylococcus aureus) (UniProt P0A0J7); test: Inhibition of NorA in Staphylococcus aureus SA-1199B assessed as reduction in ethidium bromide efflux at 50 uM by fluorimetry; set-up: scale not given: the % may be the effect or the level left
T1 sequence (whole entry): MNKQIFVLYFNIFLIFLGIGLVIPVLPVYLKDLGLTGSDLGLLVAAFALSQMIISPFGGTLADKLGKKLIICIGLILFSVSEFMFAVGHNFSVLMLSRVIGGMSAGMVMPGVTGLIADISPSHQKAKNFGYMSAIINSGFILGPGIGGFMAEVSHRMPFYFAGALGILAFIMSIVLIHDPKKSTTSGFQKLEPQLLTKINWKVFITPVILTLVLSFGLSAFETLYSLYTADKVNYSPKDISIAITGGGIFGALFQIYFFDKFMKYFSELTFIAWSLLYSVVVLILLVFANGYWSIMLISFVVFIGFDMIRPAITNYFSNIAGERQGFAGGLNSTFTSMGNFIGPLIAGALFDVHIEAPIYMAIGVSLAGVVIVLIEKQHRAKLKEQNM

| MIC (Staphylococcus aureus [12]) [µg/mL] | Activity [13] [%] | Structure (SMILES) | MIC (Staphylococcus aureus [1]) [µg/mL] | MIC (Staphylococcus aureus [2]) [µg/mL] | MIC (Staphylococcus aureus [3]) [µg/mL] | MIC (Staphylococcus aureus [4]) [µg/mL] | MIC (Staphylococcus aureus [5]) [µg/mL] | MIC (Staphylococcus aureus [6]) [µg/mL] | MIC (Staphylococcus aureus [7]) [µg/mL] | MIC (Escherichia coli) [µg/mL] | MIC (Staphylococcus aureus [8]) [µg/mL] | MIC (Staphylococcus aureus [9]) [µg/mL] | MIC (Staphylococcus aureus [10]) [µg/mL] | MIC (Staphylococcus aureus [11]) [µg/mL] |
| --- | --- | --- | --- | --- | --- | --- | --- | --- | --- | --- | --- | --- | --- | --- |
| – | – | CO/N=C1\CCSC2=C1CN(c1c(N)cc3c(=O)c(C(=O)O)cn(C4CC4)c3c1C)CC2 | > 10 | 0.31 (≈ 0.682 µM) | 2.5 (≈ 5.5 µM) | 1.25 (≈ 2.75 µM) | 0.16 (≈ 0.352 µM) | > 10 | 0.31 (≈ 0.682 µM) | 16 (≈ 35.2 µM) | 32 (≈ 70.4 µM) | 0.31 (≈ 0.682 µM) | 1.25 (≈ 2.75 µM) | 0.31 (≈ 0.682 µM) |
| – | – | O=C(O)c1cn(C2CC2)c2cc(N3CCC4=C(C3)C(O)CCS4)c(F)cc2c1=O (stereo unspecified) | > 10 | 0.16 (≈ 0.384 µM) | 1.25 (≈ 3 µM) | 0.63 (≈ 1.51 µM) | 0.08 (≈ 0.192 µM) | > 10 | 0.04 (≈ 0.096 µM) | 64 (≈ 154 µM) | 8 (≈ 19.2 µM) | 0.04 (≈ 0.096 µM) | 0.63 (≈ 1.51 µM) | 0.16 (≈ 0.384 µM) |
| > 100 | 50.5 | CCOC(=O)c1cn(C2CC2)c2c(C)c(N3CCC4=C(C3)C(=O)C(C)CS4)c(N)cc2c1=O (stereo unspecified) | – | – | – | – | – | – | – | – | – | – | – | – |
| > 100 | 36.8 | CCOC(=O)c1cn(C2CC2)c2c(C)c(N3CCC4=C(C3)C(=O)CCS4)c(N)cc2c1=O | – | – | – | – | – | – | – | – | – | – | – | – |
| – | – | Cc1c(N2CCC3=C(C2)C(=O)CCS3)c(N)cc2c(=O)c(C(=O)O)cn(C3CC3)c12 | > 10 | 0.63 (≈ 1.48 µM) | 1.25 (≈ 2.94 µM) | 1.25 (≈ 2.94 µM) | 0.25 (≈ 0.588 µM) | > 10 | 0.31 (≈ 0.729 µM) | 1 (≈ 2.35 µM) | 4 (≈ 9.4 µM) | 0.31 (≈ 0.729 µM) | 1.25 (≈ 2.94 µM) | 0.31 (≈ 0.729 µM) |
| – | – | Cc1c(N2CCC3=C(C2)C(O)CCS3)c(N)cc2c(=O)c(C(=O)O)cn(C3CC3)c12 (stereo unspecified) | – | > 100 | – | – | > 128 | – | > 100 | > 128 | > 128 | > 100 | – | > 100 |
| – | – | CC1CSC2=C(CN(c3cc4c(cc3N)c(=O)c(C(=O)O)cn4C3CC3)CC2)C1=O (stereo unspecified) | – | 12.5 (≈ 29.4 µM) | – | – | 6.25 (≈ 14.7 µM) | – | 3.13 (≈ 7.36 µM) | 64 (≈ 150 µM) | 16 (≈ 37.6 µM) | 1.56 (≈ 3.67 µM) | – | 6.25 (≈ 14.7 µM) |
| – | – | Nc1cc2c(=O)c(C(=O)O)cn(C3CC3)c2cc1N1CCC2=C(C1)C(O)CCS2 (stereo unspecified) | – | > 100 | – | – | 16 (≈ 38.7 µM) | – | 25 (≈ 60.5 µM) | 128 (≈ 310 µM) | 128 (≈ 310 µM) | 12.5 (≈ 30.2 µM) | – | 25 (≈ 60.5 µM) |
